According to US8604214B2, “Compounds for alleviation, prevention or treatment of osteoporosis, the preparation thereof and pharmaceutical composition comprising the same” (Ewha University-Industry Collaboration Foundation, priority 2011, dated 2013):

Columns and labels:
Type in all cases: cell-based, ICR mice
[1] = system: bone marrow cells (BMM), TRAP-positive multinucleated osteoclasts; assay: RANKL-induced osteoclast differentiation of BMM, TRAP staining; settings: Mus musculus, 96 h, RANKL and 30 ng/ml M-CSF, 4 days, TRAP-positive cells having 3 or more nuclei, read-out: IC50 (μM), multinucleated osteoclast formation
From the text: ICR mice (6˜9 weeks old, male) were sacrificed by cervical dislocation, followed by immersion in 70% ethanol for sterilization. Dissection was made on the tibia skin to remove the muscle attached thereto. The tibia was excised by cutting the distal tibia and dislocating the patella. The tibia were then cut slightly at their opposite ends. A 25-gauge (G) syringe needle was inserted into the bone at one end and α-MEM (Minimum Essential Medium) was infused into the bone through the needle to collect bone marrow cells.
After centrifugation, a cell pellet was suspended in α-MEM and red blood cells in the suspension were removed with two volumes of Gey's solution. After centrifugation, the cell pellet was resuspended in α-MEM supplemented with 10% FBS.
After a primary culture of the bone marrow cells, the bone marrow cells were incubated overnight in 10 ng/ml M-CSF (macrophage colony-stimulating factor) and then for an additional three days in 30 ng/ml M-CSF. After Adhesive cells (BMM) were recovered, ng/ml RANKL and 30 ng/ml M-CSF or ng/ml RANKL, 30 ng/ml M-CSF in combination with various concentrations of the K11, K14, K17, K18, K19, or K22 compound were added to each well plated at a density of 1×10^5 cells/well and each well was incubated for 4 days. The incubated to cells were fixed for 10 min with 10% formalin and then re-fixed for 1 min with ethanol/acetone (1:1(v/v)). The cells were stained for TRAP (tartrate-resistant acid phosphatase). TRAP-positive cells having 3 or more nuclei were evaluated as multinucleated osteoclasts by observation under a microscope, and their IC50 values are given in the following table 1.

[2] = system: osteoclast-specific marker genes (calcitonin receptor, cathepsin K, αv-integrin, β3-integrin, ATP6v0d2, DC-STAMP); assay: RT-PCR of osteoclast-specific marker genes; settings: R+K11: 50 ng/ml RANKL following pretreatment with 10 μM K11 for 30 minutes, compared to RANKL; FIG. 3A
Procedure: Total RNA isolation was conducted using Easy-blue (Intron Biochemistry, Inc.). cDNA was synthesized from […] of the total RNA using an oligodT primer and 10 mM dNTP, 1 unit of an RNase inhibitor and 4 units of Scrip reverse transcriptase (Fermentas, Life science) at 42° C. for 60 min, followed by termination by heating at 70° C. for 10 min.
(§1) In FIG. 3, Veh represents a control group treated with DMSO, RANKL represents a group treated with 50 ng/ml RANKL, K11 represents a group treated with 10 μM K11, R+K11 represents a group treated with 50 ng/ml RANKL following pretreatment with 10 μM K11 for 30 minutes, while * represents p<0.05 compared to Veh and ** represents *: p<0.05 compared to RANKL. N.D.=Not Detectable. FIG. 3A is graphs showing analyzed results of reverse transcription polymerase chain reaction (RT-PCR) performed for measurement of expression levels of osteoclast-specific marker genes (calcitonin receptor, cathepsin K, αv-integrin, β3-integrin, ATP6v0d2, DC-STAMP), FIG. 3B is a view of result of pits formed on dentine slices by bone absorption according to treatment with K11 compound and FIG. 3C is a graph showing analyzed results of the experiment results obtained in FIG. 3B. […]

[3] = system: BMM cells on dentine slices (bone resorption of osteoclasts); assay: Pit formation assay on dentine slices; settings: 50 ng/ml RANKL, 30 ng/ml M-CSF and 10 μM K11, six days, compared to RANKL; FIGS. 3B and 3C
Procedure: BMM cells were cultured for six days on dentine slices in 50 ng/ml RANKL and 30 ng/ml M-CSF, or 50 ng/ml RANKL 30 ng/ml and 10 μM K11 compound. After the cells on surfaces of dentine slice were washed, pits were stained with toluidin blue (J. T. Baker, UK, 1 μg/ml). Pits formed on the dentine slices by bone absorption were observed under a microscope and were analyzed.
as §1

NFATc1 = assay: Western blot analysis of NFATc1 expression; settings: 200 ng/ml RANKL following pretreatment with 10 μM K11 for 30 minutes; FIG. 4
Procedure: (§2) After BMM cells treated with reagent were incubated for a predetermined period of time, the BMM cell were lysed in a lysis buffer and centrifuged. Following normalization to BSA (bovine serum albumin) standards, protein concentrations were quantitatively analyzed using a protein assay kit (Bio-Rad). Twenty micrograms of the protein was denatured and separated by SDS-PAGE (poly acrylamide gel electrophoresis) and transferred for 1 hour and 45 minutes onto a PVDF membrane in 80 V. Subsequently, the membrane was blocked with PBST (Phosphate Buffered Saline Tween-20) containing 5% skim milk, followed by reaction with anti-NFATc1 (Nuclear factor of activated T-cells cytoplasmic 1, 1:200, Santa Cruz) antibody or anti-c-fos (1:1000, Cell Signaling) antibody as a primary antibody, respectively (1:200 ratio herein indicated means dilution of 200 times). After the membrane was washed five times with TBST and reacted with HRP (horseradish peroxidase)-conjugated secondary antibody, the protein was visualized using ECL Advance (Amersham Co.) and analyzed.
(§3) In FIGS. 4 and 5, veh represents a control group treated with DMSO, RANKL represents a group treated with 200 ng/ml RANKL, R+K11 represents a group treated with 200 ng/ml RANKL following pretreatment with 10 μM K11 for 30 minutes, while * represents p<0.05 compared to Veh and ** represents *: p<0.05 compared to RANKL.

c-fos = assay: Western blot analysis of c-fos expression; settings: 200 ng/ml RANKL following pretreatment with 10 μM K11 for 30 minutes; FIG. 5
Procedure: as §2, §3

| Structure (SMILES) | IC50 [1] | other results |
| --- | --- | --- |
| Clc1cccc(OCCCCCOc2nc3ccccc3s2)c1 [Compound K14, 2-(5-(3-chlorophenoxy)pentyloxy)benzo[d]thiazole] | 7.77 µM | – |
| COc1cc(C(=O)N(C(C)C)C(C)C)ccc1OCCCCCOc1nc2ccccc2s1 [Compound K11, 4-(5-(Benzo[d]thiazol-2-yloxy)pentyloxy)-N,N-diisopropyl-3-methoxybenzamide] | 1.56 µM | expression levels of osteoclast-specific marker genes [2]: significantly decreased; number of pits on dentine slices [3]: significant reduction; RANKL-induced increase in the expression level of NFATc1 (NFATc1): the effect of RANKL was reduced; RANKL-induced increase in the expression level of c-fos (c-fos): the effect of RANKL was reduced |
| COc1cc(C(=O)N(C(C)C)C(C)C)ccc1OCCCCOc1nc2ccccc2s1 [Compound K22, 4-(4-(Benzo[d]thiazol-2-yloxy)butoxy)-N,N-diisopropyl-3-methoxy Benzamide] | 2.2 µM | – |
| COc1ccccc1OCCCCCOc1nc2ccccc2s1 [Compound K17, 2-(5-(2-Methoxyphenoxy)pentyloxy)benzo[d]thiazole] | 23.4 µM | – |
| c1ccc(OCCCCOc2nc3ccccc3s2)cc1 [Compound K19, 2-(4-Phenoxybutoxy)benzo[d]thiazole] | 17.7 µM | – |
| Fc1ccccc1OCCCCCOc1nc2ccccc2s1 [Compound K18, 2-(5-(2-Fluorophenoxy)pentyloxy)benzo[d]thiazole] | 18.4 µM | – |
